One assay has as its target T1, Progesterone receptor (Homo sapiens, UniProt P06401).
T1 sequence (P06401 whole entry): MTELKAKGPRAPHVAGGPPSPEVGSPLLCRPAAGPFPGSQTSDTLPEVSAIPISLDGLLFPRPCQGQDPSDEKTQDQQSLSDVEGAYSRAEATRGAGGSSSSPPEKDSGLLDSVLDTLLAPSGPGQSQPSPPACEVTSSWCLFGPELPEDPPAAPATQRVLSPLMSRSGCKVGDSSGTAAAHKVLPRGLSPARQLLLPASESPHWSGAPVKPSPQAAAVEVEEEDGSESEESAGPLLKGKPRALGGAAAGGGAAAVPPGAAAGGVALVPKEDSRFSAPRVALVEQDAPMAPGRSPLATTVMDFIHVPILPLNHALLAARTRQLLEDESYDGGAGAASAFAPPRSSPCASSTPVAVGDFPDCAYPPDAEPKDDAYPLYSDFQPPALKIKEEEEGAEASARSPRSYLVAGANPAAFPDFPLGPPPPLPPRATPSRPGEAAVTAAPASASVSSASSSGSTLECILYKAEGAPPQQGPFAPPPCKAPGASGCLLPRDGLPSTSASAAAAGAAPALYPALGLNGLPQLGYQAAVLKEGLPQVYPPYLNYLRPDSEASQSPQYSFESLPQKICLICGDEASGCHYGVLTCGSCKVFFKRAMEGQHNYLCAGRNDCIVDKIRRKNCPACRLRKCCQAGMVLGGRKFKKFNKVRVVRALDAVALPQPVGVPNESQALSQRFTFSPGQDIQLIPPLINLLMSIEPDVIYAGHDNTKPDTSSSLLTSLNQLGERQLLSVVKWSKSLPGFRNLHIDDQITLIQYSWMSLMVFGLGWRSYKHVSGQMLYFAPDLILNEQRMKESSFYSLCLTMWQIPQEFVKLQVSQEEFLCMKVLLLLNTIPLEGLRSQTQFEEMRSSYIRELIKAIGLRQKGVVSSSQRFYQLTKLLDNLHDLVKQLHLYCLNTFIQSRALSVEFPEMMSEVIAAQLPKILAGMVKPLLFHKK
The experiment in a line: Binding affinity to human PR.

Assay [1] concerns the target T2, Glucocorticoid receptor (Homo sapiens, UniProt P04150).
T2 sequence (P04150 whole entry): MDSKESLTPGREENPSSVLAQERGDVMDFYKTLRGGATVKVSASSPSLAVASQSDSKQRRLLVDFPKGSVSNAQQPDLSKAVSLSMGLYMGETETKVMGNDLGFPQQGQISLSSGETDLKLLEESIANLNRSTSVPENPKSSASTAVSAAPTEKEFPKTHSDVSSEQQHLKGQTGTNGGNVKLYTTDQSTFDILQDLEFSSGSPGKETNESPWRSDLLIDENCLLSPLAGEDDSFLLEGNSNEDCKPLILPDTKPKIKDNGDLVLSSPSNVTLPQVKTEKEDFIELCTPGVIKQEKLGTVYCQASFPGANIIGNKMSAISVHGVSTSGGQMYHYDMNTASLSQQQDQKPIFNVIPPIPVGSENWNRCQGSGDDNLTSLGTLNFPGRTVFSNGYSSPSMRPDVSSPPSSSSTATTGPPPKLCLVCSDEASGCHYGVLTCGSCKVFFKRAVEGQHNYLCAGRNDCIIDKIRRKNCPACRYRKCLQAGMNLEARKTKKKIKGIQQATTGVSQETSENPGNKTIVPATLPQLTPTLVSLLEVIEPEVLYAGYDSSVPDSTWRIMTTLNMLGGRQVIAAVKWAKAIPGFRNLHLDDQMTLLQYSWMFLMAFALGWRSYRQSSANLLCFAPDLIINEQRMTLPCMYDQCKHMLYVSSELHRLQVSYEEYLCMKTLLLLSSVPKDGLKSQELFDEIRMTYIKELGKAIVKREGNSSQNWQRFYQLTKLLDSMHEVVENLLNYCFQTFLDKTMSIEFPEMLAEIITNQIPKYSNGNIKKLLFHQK
The assay can be described thus: Binding affinity to human GR.

Assay [2] has as its target T3, Mineralocorticoid receptor (Homo sapiens, UniProt P08235).
T3 sequence (P08235 whole entry): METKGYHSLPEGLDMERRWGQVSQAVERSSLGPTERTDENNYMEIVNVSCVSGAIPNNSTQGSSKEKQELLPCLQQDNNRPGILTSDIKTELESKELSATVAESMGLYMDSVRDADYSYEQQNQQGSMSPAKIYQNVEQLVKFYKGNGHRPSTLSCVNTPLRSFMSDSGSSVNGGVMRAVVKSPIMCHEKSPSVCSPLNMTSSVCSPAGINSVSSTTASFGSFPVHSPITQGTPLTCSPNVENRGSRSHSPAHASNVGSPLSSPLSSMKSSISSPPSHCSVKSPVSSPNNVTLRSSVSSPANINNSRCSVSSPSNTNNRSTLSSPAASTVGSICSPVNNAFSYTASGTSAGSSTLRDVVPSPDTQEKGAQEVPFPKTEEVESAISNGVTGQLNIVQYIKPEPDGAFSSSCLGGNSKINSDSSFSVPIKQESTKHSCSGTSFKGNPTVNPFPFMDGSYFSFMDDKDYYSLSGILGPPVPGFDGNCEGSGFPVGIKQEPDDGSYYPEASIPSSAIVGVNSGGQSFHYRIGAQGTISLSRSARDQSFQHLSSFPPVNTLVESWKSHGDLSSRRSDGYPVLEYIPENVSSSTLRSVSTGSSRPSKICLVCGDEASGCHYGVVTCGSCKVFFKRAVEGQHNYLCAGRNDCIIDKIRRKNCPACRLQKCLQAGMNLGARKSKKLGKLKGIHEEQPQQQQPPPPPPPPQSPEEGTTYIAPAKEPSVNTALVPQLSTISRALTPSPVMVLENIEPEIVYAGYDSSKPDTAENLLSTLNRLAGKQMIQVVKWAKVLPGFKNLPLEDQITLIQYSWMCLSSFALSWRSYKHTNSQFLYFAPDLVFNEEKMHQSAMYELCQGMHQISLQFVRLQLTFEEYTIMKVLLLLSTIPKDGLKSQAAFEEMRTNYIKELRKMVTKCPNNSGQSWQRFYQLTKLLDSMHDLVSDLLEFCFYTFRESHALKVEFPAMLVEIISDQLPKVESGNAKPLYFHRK
The experiment in a line: Binding affinity to human MR.

Another assay deals with Estrogen receptor (Homo sapiens, UniProt Q92731+P03372). The experiment in a line: Binding affinity to human ER. It is filed as protein assay.
A further assay relates to HFF. The experiment in a line: Inhibition of IL1-induced IL6 production in human foreskin fibroblast. It is filed as functional, cell-based.
Assay [3] deals with T2, Glucocorticoid receptor. The experiment in a line: Inhibition of Dexamethasone induced GR transactivation of MMTV luciferase in HeLa cells. Type of assay: functional, cell-based.

Drawing on ChEMBL document CHEMBL1139667, “Discovery and SAR study of novel dihydroquinoline containing glucocorticoid receptor ligands” (Bioorg Med Chem Lett, 2006), this text covers IC50 and Activity for 33 compounds.

A word on the IC50: it is the concentration needed to halve the response being measured.

Molecules are shown by their SMILES. Active and inactive are the calls of the source. No cut-off for these calls is given here.

Regarding `COc1ccccc1-c1ccc2c(c1)C(CSC1CCCCC1)=CC(C)(C)N2`, the IC50 at Progesterone receptor was more than 2000 nM; on Glucocorticoid receptor [1], 371 nM.

Consider `C=CCSCC1=CC(C)(C)Nc2ccc(-c3ccccc3-c3ccccc3)cc21`, for which the 50% inhibitory concentration (IC50) at Progesterone receptor and at Glucocorticoid receptor [1] was more than 2000 nM in each case.

Regarding `C=CCSCC1=CC(C)(C)Nc2ccc(-c3cccc(OC)c3)cc21`, the IC50 at Progesterone receptor was 460 nM; at Glucocorticoid receptor [1] it was 1000 nM.

Take `C=CCSCC1=CC(C)(C)Nc2ccc(-c3cc(F)ccc3OC)cc21`: the values for the IC50 at Progesterone receptor and on Glucocorticoid receptor [1] were 1400 nM and 190 nM, respectively.

Take `COc1ccccc1-c1ccc2c(c1)C(CSc1ccccc1)=CC(C)(C)N2`: the figures for the IC50 on Progesterone receptor and at Glucocorticoid receptor [1] were more than 2000 nM and 804 nM, respectively.

`C=CCSCC1=CC(C)(C)Nc2ccc(-c3ccccc3C)cc21`: the IC50 on Progesterone receptor and on Glucocorticoid receptor [1] was more than 2000 nM each time.

`CCC(C)CSCC1=CC(C)(C)Nc2ccc(-c3ccccc3OC)cc21` (centres undefined): the half-maximal inhibitory concentration (IC50) at Progesterone receptor was more than 2000 nM; on Glucocorticoid receptor [1], 303 nM.

Consider `CCCSCC1=CC(C)(C)Nc2ccc(-c3ccccc3OC)cc21`, for which the results for the IC50 on Progesterone receptor and on Glucocorticoid receptor [1] were 1600 nM and 1020 nM, respectively.

As to `CC1(C)C=C(CSCCc2ccccc2)c2cc(-c3cccc(O)c3Cl)ccc2N1`, the IC50 on Progesterone receptor was 1400 nM; in assay [2], more than 2000 nM; on Estrogen receptor it was more than 2000 nM; on Glucocorticoid receptor [1], 220 nM; at Glucocorticoid receptor [3], 260 nM. Further, the outcome in the assay with HFF was inactive.

Regarding `COC(=O)CSCC1=CC(C)(C)Nc2ccc(-c3ccccc3OC)cc21`, the IC50 on Progesterone receptor and at Glucocorticoid receptor [1] was more than 2000 nM in each case.

On to `C=CCSCC1=CC(C)(C)Nc2ccc(-c3ccc(OC)cc3)cc21`, for which the concentration for half-maximal inhibition (IC50) at Progesterone receptor and at Glucocorticoid receptor [1] was more than 2000 nM each time.

For `C=CCSCC1=CC(C)(C)Nc2ccc(-c3ccccc3OC)cc21`, the IC50 is 460 nM on Progesterone receptor and 360 nM at Glucocorticoid receptor [1].

Turning to `C=CCOCC1=CC(C)(C)Nc2ccc(-c3ccccc3OC)cc21`, the IC50 on Progesterone receptor and at Glucocorticoid receptor [1] was more than 2000 nM in each case.

As to `COc1ccccc1-c1ccc2c(c1)C(CSc1ccc(Cl)cc1)=CC(C)(C)N2`, the IC50 was more than 2000 nM at Progesterone receptor and 800 nM on Glucocorticoid receptor [1].

For the compound `COc1ccccc1-c1ccc2c(c1)C(CSCc1ccccc1)=CC(C)(C)N2`, the half-maximal inhibitory concentration (IC50) on Progesterone receptor is 660 nM; at Glucocorticoid receptor [1] it was more than 2000 nM.

With `COc1ccccc1-c1ccc2c(c1)C(CSC1CCCC1)=CC(C)(C)N2`, the IC50 was more than 2000 nM on Progesterone receptor and 548 nM on Glucocorticoid receptor [1].

`C=CCSCC1=CC(C)(C)Nc2ccc(-c3c(OC)cccc3OC)cc21`: the half-inhibitory concentration (IC50) at Progesterone receptor and on Glucocorticoid receptor [1] was more than 2000 nM throughout.

Regarding `COc1ccccc1-c1ccc2c(c1)C(CSCCc1ccccc1)=CC(C)(C)N2`, the IC50 at Progesterone receptor was more than 2000 nM; at Glucocorticoid receptor [1], 194 nM.

`COc1ccccc1-c1ccc2c(c1)C(C)=CC(C)(C)N2`: the IC50 on Progesterone receptor and on Glucocorticoid receptor [1] was more than 2000 nM in each case.

Regarding `C=CCSCC1=CC(C)(C)Nc2ccc(-c3cc(OC)ccc3OC)cc21`, the IC50 at Progesterone receptor and at Glucocorticoid receptor [1] was more than 2000 nM throughout.

For the compound `C=CCSCC1=CC(C)(C)Nc2ccc(-c3cccc(OC)c3OC)cc21`, the IC50 on Progesterone receptor and at Glucocorticoid receptor [1] was more than 2000 nM throughout.

For the compound `COc1ccccc1-c1ccc2c(c1)C(CSCCC(C)C)=CC(C)(C)N2`, the concentration for half-maximal inhibition (IC50) was more than 2000 nM at Progesterone receptor and 703 nM on Glucocorticoid receptor [1].

On to `C=CCNCC1=CC(C)(C)Nc2ccc(-c3ccccc3OC)cc21`, for which the IC50 at Progesterone receptor and at Glucocorticoid receptor [1] was more than 2000 nM throughout.

As for `C=CCSCC1=CC(C)(C)Nc2ccc(-c3ccccc3[N+](=O)[O-])cc21`, the IC50 at Progesterone receptor and on Glucocorticoid receptor [1] was more than 2000 nM each time.

With `COc1ccccc1-c1ccc2c(c1)C(CSC(C)=O)=CC(C)(C)N2`, the results for the IC50 at Progesterone receptor and at Glucocorticoid receptor [1] were 620 nM and more than 2000 nM, respectively.

With `C=CCSCC1=CC(C)(C)Nc2ccc(-c3ccccc3)cc21`, the 50% inhibitory concentration (IC50) at Progesterone receptor and on Glucocorticoid receptor [1] was more than 2000 nM in each case.

`C=CCSCC1=CC(C)(C)Nc2ccc(-c3cccc(OCC)c3)cc21`: the IC50 at Progesterone receptor and at Glucocorticoid receptor [1] was more than 2000 nM in each case.

As for `CNC(=O)CSCC1=CC(C)(C)Nc2ccc(-c3ccccc3OC)cc21`, the IC50 at Progesterone receptor and at Glucocorticoid receptor [1] was more than 2000 nM each time.

Turning to `C=CCSCC1=CC(C)(C)Nc2ccc(-c3ccccc3F)cc21`, the IC50 at Progesterone receptor is 360 nM; at Glucocorticoid receptor [1] it was more than 2000 nM.

For the compound `C=CCSCC1=CC(C)(C)Nc2ccc(-c3ccccc3OCC)cc21`, the IC50 at Progesterone receptor and on Glucocorticoid receptor [1] was more than 2000 nM in each case.

As for `C=CCSCC1=CC(C)(C)Nc2ccc(-c3cccc(O)c3Cl)cc21`, the IC50 on Progesterone receptor worked out at 960 nM; on Glucocorticoid receptor [1], 129 nM.

Consider `COc1ccc(F)cc1-c1ccc2c(c1)C(CSCCc1ccccc1)=CC(C)(C)N2`, for which the IC50 on Progesterone receptor is more than 2000 nM; in assay [2], more than 2000 nM; at Estrogen receptor it was more than 2000 nM; at Glucocorticoid receptor [1], 84 nM; against Glucocorticoid receptor [3], 45 nM. The result in the assay with HFF was inactive.

Consider `C=CCSCC1=CC(C)(C)Nc2ccc(-c3ccccc3C(F)(F)F)cc21`, for which the IC50 on Progesterone receptor and on Glucocorticoid receptor [1] was more than 2000 nM in each case.
